Measurements from paper PMC9814205, “Targeting undruggable carbohydrate recognition sites through focused fragment library design” (Communications Chemistry, 2022).
Where “and” joins values, the source holds several entries; their conditions need not be identical. Equal entries are not always repeated. Entries after “also recorded” stand apart in the source; their conditions may differ.

Experiments:
Format in all cases: binding
[1] = target: T1, LecA (Pseudomonas aeruginosa, UniProt Q05097); assay: Competitive 19F T2-filtered NMR with reporter 5; settings: 0.1 mM 5, 10 mM CaCl2, 3 mM competitor
T1 construct: made in house
Method: The analogs of 1 (5) and 58 (61) were used as fluorinated spy molecules in ^19F T2-filtered NMR experiments. Two samples containing 0.1 mM 5 or 61 alone or a 10 µM protein in TBS/EDTA buffer followed by addition of 10 mM CaCl2 and the carbohydrates: 1 mM MeGal (LecA), 1 mM MeFuc (LecB/BambL) and 30 mM D-mannose (DC-SIGN/Langerin). Similarly, 0.1 mM 5 was used to prioritize hydroxamate derivatives, where 3 mM analogs of 1 were added to the samples instead of the carbohydrates. The ^19F and ^19F T2-filtered spectra were recorded with 64 scans, a spectral width of 5 ppm, a transmitter offset at −155.5 ppm (5) and −155.5 ppm (61), the acquisition time of 0.8 s, 2 s relaxation time applying a T2-filter of 384 ms. All spectra were analyzed as described above.

[2] = target: T1, LecA; assay: Competitive fluorescence polarization (FP) assay; settings: for Inhibition in FP: compared to MeGal at 10 mM (16 h); for inhibition at 10000 µM: read-out: Inhibition in FP, compared to MeGal at 10 mM (16 h)
Method: The FP assay was performed in a black 384-well plate (Greiner Bio-One, Germany, 781900) with the final volume of 20 µL as described previously. Briefly, 10 µL of a sample solution series (10–0.078 mM) in TBS buffer containing 10 mM Ca^2+ (TBS/Ca^2+-buffer) and 20% DMSO were added in technical triplicates to 10 µL LecA (40 µM) preincubated with a galactose-based Cy5 conjugate[68] (20 nM) in TBS/Ca^2+-buffer. […] The plate was sealed (EASYseal, Greiner Bio-One, 676,001), centrifuged (1 min, 1500 rpm, 25 °C) and incubated in a humidity chamber for 16 h. The fluorescence was measured with an excitation 590 nm and emission 675 nm filter[68] on a PheraStar FS plate reader (BMG Labtech GmbH, Germany). The blank signal of TBS/Ca^2+-buffer containing 10% DMSO was subtracted and the compounds were analyzed with the MARS Data Analysis Software (BMG Labtech GmbH Germany) using the four-parameter variable slope model. The top and bottom plateaus were defined according to the positive controls. The graphs were visualized using Graphpad Prism 5. The percentage (%) of inhibition was calculated at the highest concentration compared with 10 mM MeGal set to 100%.

[3] = target: T2, 15N LecA (Pseudomonas aeruginosa, UniProt Q05097); assay: 1H-15N TROSY NMR with 15N LecA; settings: for binding to 15N LecA in TROSY NMR: 4 mM analogs of 1, 1 mM marketed hydroxamates
T2 construct: made in house
Method: (§1) The ^1H-^15N TROSY pulse sequence trosyf3gpphsi19 with 128 increments and 32 scans per increment was applied for 0.15 mM ^15N LecA and 0.07 mM LecB in HBS/Ca^2+ buffer (20 mM HEPES pH 7.4, 150 mM NaCl, 10 mM CaCl2, 10% D2O and 100 µM sodium trimethylsilylpropanesulfonate (DSS) as internal reference) at 310 K. The ^1H-^15N HSQC pulse sequence hsqcf3gpph19 with 128 increments and 8 scans per increment was applied for 0.1 mM ^15N DC-SIGN and Langerin CRD in HBS/Ca^2+ buffer at 298 K. For screening of 650 non-fluorinated fragments of the general library against ^15N LecA, a mix of 10 compounds at 1 mM each was combined with 0.15 mM ^15N LecA in HBS/Ca^2+ buffer (20 mM HEPES pH 7.4, 150 mM NaCl, 10 mM CaCl2, 10% D2O and 100 µM sodium trimethylsilylpropanesulfonate (DSS) as internal reference, whereas the fragments with the MBP scaffolds were validated separately at 1 mM. Similarly, 9 nonfluorinated fragments from the MBP library were screened against ^15N-labeled DC-SIGN, LecA and LecB. To validate the fragment binding to proteins, we recorded ^1H-^15N HSQC and TROSY NMR of proteins in the presence of DMSO as negative control and 2 mM fragments in HBS/Ca^2+ buffer. Natural ligands were used as positive controls at 1 mM MeGal, MeFuc and 30 mM D-mannose to LecA/LecB and DC-SIGN CRD/Langerin CRD, respectively. Titration experiments with ^15N-labeled DC-SIGN CRD or LecB were recorded in HBS/Ca^2+ buffer with 30 mM CaCl2 and 0.25 to 4–8 mM malonic acid derivatives. The Kd values were calculated according to the one-site-binding model in Origin(Pro) 2020b (OriginLab Corp., USA). Ligand efficiency calculations were done according to Eq. (1) for a temperature of 298 K and 310 K for DC-SIGN CRD and LecB, respectively.1 LE=RTlnKd/HA, with the temperature T [K], the gas constant R [kcal mol^−1 K^−1], and the number of non-hydrogen atoms HA[56].
(§2) All data were processed with NMRpipe[65] and analyzed with CcpNmr analysis. For data analysis, the protein fingerprint of ^15N DC-SIGN (Table S7) or Langerin CRD was assigned as reported previously. The ^1H-^15N TROSY resonances of ^15N LecA and ^15N LecB were indexed with IDs due to a lack of protein backbone resonance assignment (Tables S8-S9). Next, resonance IDs from protein spectra were transferred to the spectra obtained in the presence of compounds in order to compare the changes in chemical shift perturbations for the fast exchange peaks. The changes in chemical shift perturbations (CSPs) were calculated according to Eq. (2):2 △δ=1/2△δH2+α△δN^2 in which δ is the difference in chemical shift (in ppm) and α is an empirical weighting factor of 0.14 for all amino acid backbone resonances. The threshold value was set based on three independent measurements of reference spectra to 0.01 ppm for LecA, LecB, DC-SIGN CRD and Langerin CRD.

[4] = target: T3, LecB (PA-IIL) (Pseudomonas aeruginosa, UniProt Q9HYN5); assay: 1H-15N TROSY NMR with 15N LecB; settings: 2 mM compound
T3 construct: made in house
Method: as §1, with “Ligand efficiency calculations were done according to Eq. (1) for a temperature of 298 K and 310 K for DC-SIGN CRD and LecB, respectively.1 LE=RTlnKd/HA, with the temperature T [K], the gas constant R [kcal mol^−1 K^−1], and the number of non-hydrogen atoms HA[56].” left out
All data were processed with NMRpipe[65] and analyzed with CcpNmr analysis. […] The changes in chemical shift perturbations (CSPs) were calculated according to Eq. (2):2 △δ=1/2△δH2+α△δN^2 in which δ is the difference in chemical shift (in ppm) and α is an empirical weighting factor of 0.14 for all amino acid backbone resonances. […]

[5] = target: T1, LecA; assay: SPR with immobilized LecA; settings: compounds at 0.2 and 1 mM
Method: All experiments were performed on a BIACORE X100 instrument (GE Healthcare) at 25 °C in phosphate-buffered saline (10 mM phosphate buffer pH 7.4, 2.7 mM KCl, 137 mM NaCl, 0.05% Tween-20, 100 µM CaCl2, 5% DMSO). LecA was immobilized onto a CM7 chip (BIACORE) following standard amine coupling procedures. The CM7 chip was activated by three injections of a NHS/EDC mixture with a contact time of 540 s at a flow rate of 10 µL min^−1 until the response exceeded 800 RU, followed by multiple injections of LecA dissolved in 10 mM sodium acetate pH 4.5 (100 µg/mL) onto channel 2 (contact time of 540 s at a flow rate of 10 µL min^−1). A minimum of 10,000 RU of LecA was captured onto the chip. Initial binding screens were performed with the injections of 0.2 and 1 mM of each hydroxamate (association 30 s, dissociation 60 s, 30 µL min^−1 flow rate), to identify the initial binders eliciting dose-response behaviors. Injection of the positive control (0.1 mM 4-Nitrophenyl-β-D-galactoside) was included after every forth injection cycle to monitor the activity of immobilized LecA throughout the binding screen experiments. All data evaluation was performed using BIACORE X100 evaluation software (v.2.0).

[6] = target: T4, 5FW LecA (PA-IL) (Pseudomonas aeruginosa, UniProt Q05097); assay: PrOF NMR with 5-fluorotryptophan-labeled LecA; settings: for LE: ligand efficiency calculated from Kd for LecA, 310 K
T4 construct: made in house
Method: PrOF NMR was performed as reported previously. Briefly, 150 µM 5FW LecA was recorded alone and in the presence of DMSO or 2–4 mM compounds in TBS/Ca^2+ buffer. The difference in chemical shift perturbations of W42 in 5FW LecA free vs bound forms was followed to determine Kd values of compounds. The Kd values were calculated according to the one-site-binding model in Origin(Pro) 2020b (OriginLab Corp., USA) from two or three independent titrations. Ligand efficiency values were calculated according to Eq. (1) for a temperature of 310 K.

[7] = target: T5, DC-SIGN CRD (CD209) (Homo sapiens, UniProt Q9NNX6); assay: 1H-15N HSQC NMR with 15N DC-SIGN CRD
T5 construct: the carbohydrate recognition domain (CRD) of DC-SIGN in ^1H-^15N HSQC/TROSY NMR experiments; made in house
T5 sequence (Q9NNX6 263-378 limits assumed): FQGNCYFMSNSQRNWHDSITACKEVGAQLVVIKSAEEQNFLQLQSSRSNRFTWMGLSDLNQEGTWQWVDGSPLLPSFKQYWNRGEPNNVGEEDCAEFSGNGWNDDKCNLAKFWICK
Method: as §1, §2

T1 sequence (Q05097 whole entry): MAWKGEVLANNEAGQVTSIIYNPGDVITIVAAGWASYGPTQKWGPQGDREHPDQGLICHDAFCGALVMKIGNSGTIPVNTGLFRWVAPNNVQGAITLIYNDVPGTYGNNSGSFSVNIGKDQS
T2 sequence (Q05097 whole entry): as above
T4 sequence (Q05097 2-122): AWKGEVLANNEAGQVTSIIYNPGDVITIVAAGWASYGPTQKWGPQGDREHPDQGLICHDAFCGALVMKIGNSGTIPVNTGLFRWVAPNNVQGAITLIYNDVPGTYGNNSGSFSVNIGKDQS
T3 sequence (Q9HYN5 entry or part of it): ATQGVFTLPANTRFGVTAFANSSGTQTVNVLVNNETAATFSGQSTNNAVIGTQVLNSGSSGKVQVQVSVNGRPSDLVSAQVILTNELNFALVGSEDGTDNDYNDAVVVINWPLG

Row | SMILES | Inhibition in FP [2] | inhibition at 10000 µM [2] [%] | binding to 15N LecA in TROSY NMR [3] | further results
1 | NC(C(=O)NO)c1ccccc1 (stereo not drawn) [compound 1] |  |  |  | competition of reporter 5 from LecA (recovery of 19F peak) [1]: did not displace; inhibition at 4000 µM ([2]; read-out: Inhibition in FP, compared to MeGal, measured at 4 mM (16 h)): 6%; total % of CSPs normalized to MeGal in 15N LecA ([3]; 2 mM compound, 1 mM MeGal): 40%; binding to 15N LecB in TROSY NMR [4]: did not bind; Efficiency in SPR (normalized binding response) [5]: 11.6%; Kd [6]: 7.2 ± 1.4 mM; LE [6]: 0.25 kcal mol^−1 HA^−1
2 | O=C(Cc1ccccc1)NO [compound 2, N-hydroxy-2-phenylacetamide] | 18 ± 1% | 18.3 ± 1 | preserved the binding | competition of reporter 5 from LecA (recovery of 19F peak) [1]: recovered; Kd [6]: 6.1 ± 0.9 mM
3 | O=C(CC1CCCCC1)NO [compound 6] |  | 21 ± 1 | preserved its binding | Kd [6]: 4.4 ± 0.6 mM; LE [6]: 0.30 kcal mol^−1 HA^−1
4 | CONC(=O)Cc1ccccc1 [compound 7] | lost their binding and inhibitory effect; also recorded: No inhibiton |  | not tolerated | 
5 | CN(O)C(=O)Cc1ccccc1 [compound 8] |  | 20 ± 3 | not tolerated | 
6 | Cc1ccc(CC(=O)NO)cc1 [compound 9] | 14–16% and 16 ± 2% |  |  | 
7 | Cc1ccccc1CC(=O)NO [compound 10] | 14–16% and 14 ± 4% |  |  | 
8 | O=C(Cc1ccc(Br)cc1)NO [compound 11] | 14–16% and 14 ± 1% |  |  | 
9 | COc1ccc(CC(=O)NO)cc1 [compound 15] | 14–16% and 16 ± 4% |  |  | 
10 | COc1cccc(C(O)=CC(=O)NO)c1 [compound 31] |  | 9 ± 2 |  | 
11 | O=C(CCCc1ccccc1)NO [compound 35, N-hydroxy-4-phenylbutanamide] |  | 26 ± 1 | preserved the binding | competition of reporter 5 from LecA (recovery of 19F peak) [1]: recovered; also recorded: displaced; Kd [6]: 4.6 ± 0.9 mM; LE [6]: 0.26 kcal mol^−1 HA^−1
12 | Cc1ccc(CCCC(=O)NO)cc1 [compound 36] | 35 ± 3% | 27 to 39 | slightly improved binding | Kd [6]: 3.6 ± 2.2 mM; LE [6]: 0.25 kcal mol^−1 HA^−1
13 | O=C(CCCc1cccs1)NO [compound 37] |  | 25 ± 3 |  | 
14 | O=C(CCCc1ccc(Br)cc1)NO [compound 38] |  | 25 ± 1 |  | 
15 | O=C(CCCc1ccc([N+](=O)[O-])cc1)NO [compound 39] | 4 ± 2% |  |  | 
16 | COc1ccc(CCCC(=O)NO)cc1 [compound 40] | 27 ± 1% | 27 to 39 |  | 
17 | O=C(CCCc1ccc(O)cc1)NO [compound 41] | 39 ± 1% | 27 to 39 |  | 
18 | O=C(CC=Cc1ccccc1)NO [compound 42] |  | 13 ± 3 | not tolerated | 
19 | O=C(COCCc1ccccc1)NO [compound 43] |  | 8 ± 3 | not tolerated | 
20 | O=C(COCCCc1ccccc1)NO [compound 44] |  | 17 ± 2 |  | 
21 | O=C(CCCCCCC(=O)Nc1ccccc1)NO [compound 47, reference compound] |  |  | not tolerated; also recorded: none of the marketed metalloproteinase inhibitors (47, 49, 50) bound; also recorded: no binding | competition of reporter 5 from LecA (recovery of 19F peak) [1]: did not displace; Efficiency in SPR (normalized binding response) [5]: 3.8%
22 | O=C(O)C(F)(CC1CCC1)C(=O)O [compound 61] |  |  |  | Kd ([7]; 15N DC-SIGN CRD, titration, one-site binding model, 30 mM CaCl2): 1.9 mM; LE ([7]; ligand efficiency calculated from Kd for DC-SIGN CRD, 298 K): 0.28 kcal mol^−1 HA^−1; binding to 5FW LecA (perturbation of W42) in PrOF NMR ([6]; 2 mM compound): perturbed W42; also recorded: strongest perturbation of W42; W42 [ppm] ([6]; 19F resonance of 0.15 mM 5FW LecA with 2 mM compound, DMSO 120.50): 120.32 ppm; W2 [ppm] ([6]; 19F resonance of 0.15 mM 5FW LecA with 2 mM compound, DMSO 121.43): 121.46 ppm; W33 [ppm] ([6]; 19F resonance of 0.15 mM 5FW LecA with 2 mM compound, DMSO 121.67): 121.73 ppm; W84 [ppm] ([6]; 19F resonance of 0.15 mM 5FW LecA with 2 mM compound, DMSO 123.50): 123.52 ppm
